# Read-outs that look alike come from different tables or passages of the source. Where no end group is shown, it is not given here.
# Tests used:
# [1] = Solubility / aggregation of pHLIP variants at pH 8
# [2] = type: physicochemical; conditions: absorbance at 300 nm
# Method: Peptides were labeled at the C-terminal Cys residues using the membrane-impermeable compound maleimide-PEG2-biotin (Thermo Scientific), which has a long polar spacer arm of 29.1 Å that allows adequate biotin binding to avidin. The synthesis reaction was performed in 10 mM phosphate buffer, pH 7.5 (overnight incubation at 4° C.). Reaction products were purified by HPLC, and the mass of the biotin-labeled peptides checked by MALDI-TOF mass spectrometry. The octanol/water partition coefficient of maleimide-PEG2-biotin was determined experimentally by measuring the absorbance at 300 nm in the aqueous and octanol (previously pre-equilibrated with water) phases after a 2 h vortexing. A log P value of −1.07±0.02 was obtained. […] (Kuyper et al., 2006, J. Am. Chem. Soc. 128(10), 3233-40).
# [3] = system: tumor; conditions: in vivo
# [4] = physchem
# [5] = Stopped-flow fluorescence and CD kinetics of insertion/folding and exit/unfolding; type: physicochemical
# [6] = system: HeLa cells; type: cell-based, human
# [7] = system: GFP fluorescent tumors; conditions: mouse, in vivo
# [8] = Analytical ultracentrifugation, sedimentation velocity; type: physicochemical; conditions: 7 μM, pH 8
# [9] = mouse, in vivo
# [10] = system: HeLa cells
# [11] = Membrane affinity and insertion kinetics of variants Var1-16; type: physicochemical; conditions: relative to WT pHLIP
# [12] = system: HeLa tumors; conditions: mouse, in vivo
# [13] = in vivo; cited from earlier work
compound,measurement,setting,value
CC[C@H](C)[C@H](NC(=O)[C@@H]1CCCN1C(=O)[C@H](CC(N)=O)NC(=O)[C@H](CCC(N)=O)NC(=O)[C@H](CCC(=O)O)NC(=O)CNC(=O)CN)C(=O)N[C@@H](Cc1ccc(O)cc1)C(=O)N[C@@H](Cc1c[nH]c2ccccc12)C(=O)N[C@@H](C)C(=O)N[C@@H](CCC(N)=O)C(=O)N[C@@H](Cc1ccc(O)cc1)C(=O)N[C@@H](C)C(=O)N[C@@H](CC(=O)O)C(=O)N[C@@H](Cc1c[nH]c2ccccc12)C(=O)N[C@@H](CC(C)C)C(=O)N[C@@H](Cc1ccccc1)C(=O)N[C@H](C(=O)N[C@H](C(=O)N1CCC[C@H]1C(=O)N[C@@H](CC(C)C)C(=O)N[C@@H](CC(C)C)C(=O)N[C@@H](CC(C)C)C(=O)N[C@@H](CC(C)C)C(=O)N[C@@H](CC(=O)O)C(=O)N[C@@H](CC(C)C)C(=O)N[C@@H](C)C(=O)N[C@@H](CC(C)C)C(=O)N[C@@H](CC(C)C)C(=O)N[C@H](C(=O)N[C@@H](CC(=O)O)C(=O)N[C@@H](C)C(=O)N[C@@H](CC(=O)O)C(=O)N[C@@H](CCC(=O)O)C(=O)NCC(=O)N[C@H](C(=O)N[C@@H](CS)C(=O)NCC(=O)O)[C@@H](C)O)C(C)C)[C@@H](C)O)[C@@H](C)O [R11Q],Notes: solubility,[1],Has better solubility
O=C(CCCC[C@@H]1SC[C@@H]2NC(=O)N[C@@H]21)NCCOCCOCCNC(=O)CCN1C(=O)C=CC1=O [maleimide-PEG2-biotin],log P (octanol/water),[2],−1.07±0.02
AAEQNPIYWARYADWLFTTGLLLLDLALLVDADEGT [P20G],Findings: biodistribution / blood clearance,[3],Goes the liver
same,pKa,[4],~6.7
H-GGEQNPIYWARYADWLFTTPLLLLDLALLVDADEGT-OH [pHLIP],pH range over which titration occurs,,~1 pH unit
same,interfacial helix formation time,[5],0.1 s
same,"recruitment of anti-DNP antibodies, pH 6.2 versus pH 7.4 (times more)",[6],not capable of significantly recruiting
same,toxic effects in mice,[7],did not induce any toxic effects
same,oligomer share of total population,[8],~6%
same,adverse effects,[9],did not show any adverse effects
same,inhibitory effect on HeLa proliferation,[10],no inhibition of proliferation was observed
WT-reverse (TEDADVLLALDLLLLPTTFLWDAYRAWYPNQECA),"Findings: Inserts into membrane, times faster than WT",[11],Inserts into membrane 10 times
gold nanoparticles,"amount of gold, Bladder",[12],0.010 ± 0.094 % of injected dose per gram of tissue
same,"amount of gold, Blood",[12],0.028 ± 0.028 % of injected dose per gram of tissue
same,"amount of gold, Heart",[12],0.075 ± 0.010 % of injected dose per gram of tissue
same,"amount of gold, Intestine",[12],0.034 ± 0.021 % of injected dose per gram of tissue
same,"amount of gold, Kidney",[12],1.561 ± 0.098 % of injected dose per gram of tissue
same,"amount of gold, Liver",[12],0.082 ± 0.082 % of injected dose per gram of tissue
same,"amount of gold, Lung",[12],0.119 ± 0.025 % of injected dose per gram of tissue
same,"amount of gold, Muscle",[12],1.836 ± 0.071 % of injected dose per gram of tissue
same,"amount of gold, Skin",[12],0.129 ± 0.041 % of injected dose per gram of tissue
same,"amount of gold, Spleen",[12],0.097 ± 0.039 % of injected dose per gram of tissue
same,"amount of gold, Stomach",[12],0.012-30.011 % of injected dose per gram of tissue
same,"amount of gold, Bladder",[12]; iv,0.050 ± 0.050 % of injected dose per gram of tissue
same,"amount of gold, Blood",[12]; iv,0.091 ± 0.020 % of injected dose per gram of tissue
same,"amount of gold, Heart",[12]; iv,0.069 ± 0.004 % of injected dose per gram of tissue
same,"amount of gold, Intestine",[12]; iv,0.073 ± 0.002 % of injected dose per gram of tissue
same,"amount of gold, Kidney",[12]; iv,1.206 ± 0.078 % of injected dose per gram of tissue
same,"amount of gold, Liver",[12]; iv,0.392 ± 0.031 % of injected dose per gram of tissue
same,"amount of gold, Lung",[12]; iv,0.128 ± 0.000 % of injected dose per gram of tissue
same,"amount of gold, Muscle",[12]; iv,0.053 ± 0.005 % of injected dose per gram of tissue
same,"amount of gold, Skin",[12]; iv,0.204 ± 0.029 % of injected dose per gram of tissue
same,"amount of gold, Spleen",[12]; iv,0.089 ± 0.045 % of injected dose per gram of tissue
same,"amount of gold, Stomach",[12]; iv,0.081 ± 0.000 % of injected dose per gram of tissue
same,LD50,[13],approximately 3.2 g Au kg^−1

# Source: patent US20160256560A1, “Environmentally Sensitive Compositions” (priority 2010, published 2016)
